Reference: patent US11331299B2, “Medicinal use of serrulatane diterpenes” (The University of Sydney, priority 2016, dated 2022)
Like-named read-outs stand apart in the source and are kept apart here.

Test system: 280 human cancer cell lines
Test: OncoPanel cell proliferation assay (10-day)
Assay type: cell-based
Settings: Homo sapiens; for IC50: read-out: Cell Count IC50; for EC50: read-out: Cell Count EC50; for GI50: read-out: Cell Count GI50
[1] = Caov-3, CaOV3, Female GU - Ovary
[2] = ChaGo-K-1, ChaGoK1, Lung - NSCLC
[3] = D341 Med, CNS - Medulloblastoma
[4] = Detroit 562, Detroit 562, Head and Neck
[5] = DoTc2-4510, DoTc2 4510, Lymphoma
[6] = G292, G-292, clone A141B1, Soft Tissue - Osteosarcoma
[7] = HEL 92.1.7, HEL-92-1-7, Leukemia

With CC(C)=CCC[C@H](CO)[C@@H]1CC[C@@H](C)c2c1cc(C)c(O)c2O [Compound 1, 7,8,18-trihydroxyserrulat-14-ene] the IC50 (Calu-6, Calu6, Lung - NSCLC) was 9240 nM, the EC50 [1] was 1910 nM and the GI50 [1] was 1850 nM. It also gave an IC50 [1] of 1920 nM, an EC50 (Capan-2, Capan-2, Pancreas) of 1330 nM and a GI50 (Capan-2, Capan-2, Pancreas) of 1320 nM. The IC50 (Capan-2, Capan-2, Pancreas) was 1330 nM, the EC50 [2] was 1530 nM and the GI50 [2] was 1530 nM. The IC50 [2] was 1540 nM, the EC50 [3] was 9090 nM and the GI50 [3] was 9370 nM. For the same compound, the IC50 [3] was 9460 nM, the EC50 (DB, Lymphoma) was 2100 nM and the GI50 (DB, Lymphoma) was 2090 nM. For the same compound, the IC50 (DB, Lymphoma) was 2100 nM, the EC50 (DBTRG-05MG, CNS - Glioma) was 2650 nM and the GI50 (DBTRG-05MG, CNS - Glioma) was 2640 nM. For the same compound, the IC50 (DBTRG-05MG, CNS - Glioma) was 2660 nM, the EC50 (DK-MG, CNS - Glioma) was 6160 nM and the GI50 (DK-MG, CNS - Glioma) was 6120 nM. For the same compound, the IC50 (DK-MG, CNS - Glioma) was 6410 nM, the EC50 (DLD-1, DLD-1, Colon) was 2960 nM and the GI50 (DLD-1, DLD-1, Colon) was 2960 nM. The IC50 (DLD-1, DLD-1, Colon) was 2960 nM, the EC50 (DMS-53, DMS53, Lung - SCLC) was 810 nM and the GI50 (DMS-53, DMS53, Lung - SCLC) was 770 nM. It also gave an IC50 (DMS-53, DMS53, Lung - SCLC) of 810 nM, an EC50 (DMS-114, DMS114, Lung - SCLC) of 2770 nM and a GI50 (DMS-114, DMS114, Lung - SCLC) of 2570 nM. It also gave an IC50 (DMS-114, DMS114, Lung - SCLC) of 2770 nM, an EC50 (DOHH-2, DOHH-2, Lymphoma) of 1410 nM and a GI50 (DOHH-2, DOHH-2, Lymphoma) of 1410 nM. It also gave an IC50 (DOHH-2, DOHH-2, Lymphoma) of 1410 nM, an EC50 (DU-145, DU145, Prostate) of 2800 nM and a GI50 (DU-145, DU145, Prostate) of 2780 nM. The IC50 (DU-145, DU145, Prostate) was 2800 nM, the EC50 (Daoy, CNS - Medulloblastoma) was 1060 nM and the GI50 (Daoy, CNS - Medulloblastoma) was 1060 nM. The IC50 (Daoy, CNS - Medulloblastoma) was 1060 nM, the EC50 (Daudi, Lymphoma) was 1840 nM and the GI50 (Daudi, Lymphoma) was 1840 nM. The IC50 (Daudi, Lymphoma) was 1840 nM, the EC50 [4] was 1960 nM and the GI50 [4] was 1960 nM. The IC50 [4] was 1970 nM, the EC50 [5] was 1030 nM and the GI50 [5] was 1010 nM. It also gave an IC50 [5] of 1030 nM, an EC50 (EB2, Lymphoma) of 6470 nM and a GI50 (EB2, Lymphoma) of 6450 nM. The IC50 (EB2, Lymphoma) was 6490 nM, the EC50 (EB-3, Lymphoma) was 3560 nM and the GI50 (EB-3, Lymphoma) was 3560 nM. For the same compound, the IC50 (EB-3, Lymphoma) was 3560 nM, the EC50 (EFM-19, EFM-19, Breast) was 1610 nM and the GI50 (EFM-19, EFM-19, Breast) was 1540 nM. The IC50 (EFM-19, EFM-19, Breast) was 1610 nM, the EC50 (EM-2, Leukemia) was 2390 nM and the GI50 (EM-2, Leukemia) was 2370 nM. For the same compound, the IC50 (EM-2, Leukemia) was 2390 nM, the EC50 (FaDu, Head and Neck) was 870 nM and the GI50 (FaDu, Head and Neck) was 870 nM. The IC50 (FaDu, Head and Neck) was 870 nM, the EC50 [6] was 4550 nM and the GI50 [6] was 4410 nM. The IC50 [6] was 4570 nM, the EC50 (G-361, G-361, Skin (Melanoma)) was 1790 nM and the GI50 (G-361, G-361, Skin (Melanoma)) was 1770 nM. For the same compound, the IC50 (G-361, G-361, Skin (Melanoma)) was 1790 nM, the EC50 (G-401, G-401, Kidney) was 4000 nM and the GI50 (G-401, G-401, Kidney) was 3990 nM. The IC50 (G-401, G-401, Kidney) was 4000 nM, the EC50 (GA-10, GA-10, Lymphoma) was 1930 nM and the GI50 (GA-10, GA-10, Lymphoma) was 1940 nM. For the same compound, the IC50 (GA-10, GA-10, Lymphoma) was 1940 nM, the EC50 (H4, CNS - Glioma) was 2770 nM and the GI50 (H4, CNS - Glioma) was 2770 nM. For the same compound, the IC50 (H4, CNS - Glioma) was 2770 nM, the EC50 (HCT-15, HCT-15, Colon) was 1840 nM and the GI50 (HCT-15, HCT-15, Colon) was 1830 nM. For the same compound, the IC50 (HCT-15, HCT-15, Colon) was 1840 nM, the EC50 (HCT-116, HCT-116, Colon) was 1750 nM and the GI50 (HCT-116, HCT-116, Colon) was 1750 nM. For the same compound, the IC50 (HCT-116, HCT-116, Colon) was 1750 nM, the EC50 (HEC-1-A, Female GU - Uterus) was 2570 nM and the GI50 (HEC-1-A, Female GU - Uterus) was 2560 nM. The IC50 (HEC-1-A, Female GU - Uterus) was 2570 nM, the EC50 [7] was 13900 nM and the GI50 [7] was 13900 nM. The IC50 [7] was 13900 nM, the EC50 (HLE, Liver) was 4620 nM and the GI50 (HLE, Liver) was 4590 nM. For the same compound, the IC50 (HLE, Liver) was 4630 nM, the EC50 (HLF, Liver) was 4470 nM and the GI50 (HLF, Liver) was 4450 nM. It also gave an IC50 (HLF, Liver) of 4480 nM, an EC50 (HMCB, Skin (Melanoma)) of 1370 nM and a GI50 (HMCB, Skin (Melanoma)) of 1360 nM. For the same compound, the IC50 (HMCB, Skin (Melanoma)) was 1370 nM and the EC50 (HOS, Soft Tissue - Osteosarcoma) was 960 nM.
